The text below walks through data of PMC6711994 (Scientific Reports, 2019).

The target of one test is T1, lsBSH (Ligilactobacillus salivarius, UniProt J7H3P9).
T1 construct: recombinant from E. coli JL885 (pBSH vector), purified; initiator Met removed, N-terminal nucleophile Cys2; homotetramer; Cys2 oxidised (sulfonic, OCS) in the crystal
The test can be described thus: X-ray crystal structure, […] Å, crystal soaking. The format is binding. Conditions: CA formed from soaked GCA; Cys2 oxidised (sulfonic form); active site of chains B, C, D, E, G and H.

For test [1], the target named is bile salt hydrolase from Lactobacillus salivarius (Lactobacillus salivarius NRRL B-30514). Nature of the test: crystal structure; apo lsBSH crystals (20% PEG 3,350, 0.2 M KH2PO4 pH 4.8, 20 °C) soaked with GCA for 4 h; space group P21; two tetramers in one asymmetric unit.

T1 sequence (J7H3P9 entry or part of it): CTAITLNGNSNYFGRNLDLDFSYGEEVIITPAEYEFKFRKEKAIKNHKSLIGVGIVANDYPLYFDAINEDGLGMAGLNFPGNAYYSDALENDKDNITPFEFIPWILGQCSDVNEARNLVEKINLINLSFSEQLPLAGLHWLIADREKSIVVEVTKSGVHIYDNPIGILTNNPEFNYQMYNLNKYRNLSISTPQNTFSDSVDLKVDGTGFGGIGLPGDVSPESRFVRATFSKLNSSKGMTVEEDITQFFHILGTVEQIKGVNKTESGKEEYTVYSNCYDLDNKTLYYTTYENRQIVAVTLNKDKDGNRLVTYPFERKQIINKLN

Take `C[C@H](CCC(=O)O)[C@H]1CC[C@H]2[C@@H]3[C@H](O)C[C@@H]4C[C@H](O)CC[C@]4(C)[C@H]3C[C@H](O)[C@]12C` [CA, cholic acid]: the “X-ray crystal structure, 2.10 Å, crystal soaking” value on lsBSH was “The lsBSH monomers were obtained bound to substrate GCA or product CA”.
In general, stoichiometry N refers to the number of molecules, sites or subunits per partner or assembly. As for “bile salt hydrolase from Lactobacillus salivarius (enzyme)”, in test [1], the stoichiometry N amounted to 4.
